pIC50: −log10 of the molar value. Where two headings read alike, the source gives them in different places.
Target: T1, HCV RdRp (NS5B RNA-dependent RNA polymerase) (Hepatitis C virus genotype 1b, UniProt P26663)
T1 construct: The HCV NS5B protein is the viral RdRp; made in house; host or cells: insect cells infected with recombinant baculovirus
Assay: Inhibition of hepatitis C virus RdRp (poly(A)/oligo(U), [3H]UTP incorporation)
Format: biochemical
Settings: for IC50: Tables I-VIII, 20 nM NS5B, 1 hour at 22° C., read-out: IC 50 (μM), HCV-polymerase; for pIC50: Tables IXa-IXc, unit inferred, read-out: HCV (IC50)
Method: In initial tests, the compounds were tested to see if they were effective as inhibitors of the RNA-dependent RNA polymerase (RdRp) of hepatitis C virus (HCV). The HCV NS5B protein is the viral RdRp; compounds capable of interfering with the activity of this enzyme are thus expected to block viral replication.
Test for Inhibition of Hepatatis C Virus RdRp
WO96/37619 describes the production of recombinant HCV RdRp from insect cells infected with recombinant baculovirus encoding the enzyme. […] The reference describes a polymerisation assay using poly (A) as a template and oligo (U) as a primer. Incorporation of tritiated UTP is quantified by measuring acid-insoluble radioactivity. The present inventors have employed this assay to screen the various compounds described above as inhibitors of HCV RdRp and other virally encoded polymerases.
Incorporation of radioactive UMP was measured as follows. The standard reaction (100 μl) was carried out in a buffer containing 20 mM tris/HCl pH 7.5, 5 mM MgCl2, 1 mM DTT, 50 mM NaCl, 1 mM EDTA, 2 OU Rnasin (Promega), 0.05% Triton X-100, 1 μCi[^3H] UTP (40 Ci/mmol,NEN), 10 μM UTP and 10 μg/ml poly (A). Oligo (U)12 (1 μg/ml, Genset) was added as a primer. The final NSSB enzyme concentration was 20 nM. After 1 hour incubation at 22° C. the reaction was stopped by adding 100 μl of 20% TCA and applying samples to DE81 filters. The filters were washed thoroughly with 5% TCA containing 1M Na2HPO4/NaH2PO4, pH 7.0, rinsed with water and then ethanol, air dried, and the filter-bound radioactivity was measured in the scintillation counter. By carrying out the reaction in the presence of various concentrations of each of the compounds set out above it was possible to determine IC50 values for each compound with the formula: % residual activity=100/(1+[I]/IC50)^s where [I] is the inhibitor concentration and “s” is the slope of the inhibition curve. Test for Inhibition of Hepatitis B Virus Polymerase

T1 sequence (P26663 2420-3010): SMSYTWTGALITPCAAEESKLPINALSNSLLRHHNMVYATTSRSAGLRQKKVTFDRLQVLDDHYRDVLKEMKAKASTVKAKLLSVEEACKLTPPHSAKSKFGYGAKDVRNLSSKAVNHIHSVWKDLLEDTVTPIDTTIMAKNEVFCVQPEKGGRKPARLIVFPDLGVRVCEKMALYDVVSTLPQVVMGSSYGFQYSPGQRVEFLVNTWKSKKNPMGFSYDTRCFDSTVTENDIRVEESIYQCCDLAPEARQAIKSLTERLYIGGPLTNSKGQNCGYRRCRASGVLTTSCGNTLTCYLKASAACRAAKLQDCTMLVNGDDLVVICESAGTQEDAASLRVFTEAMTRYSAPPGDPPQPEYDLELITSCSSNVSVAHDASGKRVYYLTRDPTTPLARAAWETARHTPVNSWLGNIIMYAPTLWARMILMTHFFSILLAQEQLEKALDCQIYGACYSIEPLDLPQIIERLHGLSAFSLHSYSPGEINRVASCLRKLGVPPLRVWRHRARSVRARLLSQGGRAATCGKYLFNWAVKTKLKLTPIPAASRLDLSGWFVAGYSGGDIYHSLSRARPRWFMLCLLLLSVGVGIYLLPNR

Row | Structure (SMILES) | IC50 | pIC50
1 | O=C(O)C(O)=CC(=O)c1ccccc1OCC1CCCCC1 [Example 9] | 51 µM | –
2 | O=C(O)C(O)=CC(=O)c1ccsc1Cc1cccc(F)c1 [Example 229] | 80 µM | –
3 | N#CCCCOc1ccc(C#CCCCCl)cc1C(=O)C=C(O)C(=O)O [Example 56] | 23.6 µM | –
4 | O=C(O)C(O)=CC(=O)c1cc(Cc2ccccc2)ccc1F [Example 152] | 20 µM | –
5 | O=C(O)C(O)=CC(=O)c1cccn1CC1CCCCC1 [Example 178] | 17.9 µM | –
6 | CS(=O)(=O)Nc1cccc(C(=O)C=C(O)C(=O)O)c1 [Example 75] | 19.2 µM | –
7 | O=C(O)C(O)=CC(=O)c1cccc(-c2ccccc2)c1 [Example 3] | 27.9 µM | –
8 | O=C(O)C(O)=CC(=O)c1cccc(N2CCCC2)c1 [Example 15] | 83.5 µM | –
9 | O=C(O)C(O)=CC(=O)c1ccc(F)cc1 [Example 163] | 26 µM | –
10 | N#Cc1ccc(Cn2cccc2C(=O)C=C(O)C(=O)O)cc1 [Example 183] | 32 µM | –
11 | CCCCCCCOc1ccccc1C(=O)C=C(O)C(=O)O [Example 31] | 18 µM | –
12 | CCC(C)C(=O)/C=C(\O)C(=O)O (stereo not drawn) [Example 240] | 18 µM | –
13 | N#CCCCn1cccc1C(=O)C=C(O)C(=O)O [Example 173] | 21 µM | –
14 | Cc1ccc(-c2sccc2C(=O)C=C(O)C(=O)O)cc1 [Example 226] | 17 µM | –
15 | O=C(O)C(O)=CC(=O)c1cc(Cl)sc1Cl [Example 224] | 50 µM | –
16 | O=C(O)/C(O)=C/C(=O)C1(Cc2ccc(Cl)cc2)CCCN(Cc2ccccc2)C1 (stereo not drawn) [Example 247] | 45 µM | –
17 | O=C(O)C(O)=CC(=O)c1sccc1Br [Example 199] | 17 µM | –
18 | O=C(O)/C(O)=C/C(=O)C1(Cc2ccc(Cl)cc2)CCCN(S(=O)(=O)c2ccc(Br)cc2)C1 (stereo not drawn) [Example 252] | 61 µM | –

More lines, now with the values ahead:

Row | IC50 | pIC50 | Structure (SMILES)
19 | 12 µM | – | O=C(O)C(O)=CC(=O)c1ccc(Cl)s1 [Example 193]
20 | 16 µM | – | O=C(O)C(O)=CC(=O)c1ccccc1Oc1ccc(Cl)cc1 [Example 38]
21 | 10.8 µM | – | O=C(O)C(O)=CC(=O)c1ccccc1/C=C/c1ccccc1 [Example 55]
22 | 0.17 µM | 6.77 | N#Cc1c(Cl)cccc1COc1cccc(C(=O)C=C(O)C(=O)O)c1 [Example 109]
23 | 0.6 µM | – | Cc1ccc(C(=O)C=C(O)C(=O)O)c(OCCCC#N)c1 [Example 167]
24 | 7.5 µM | – | O=C(O)C(O)=CC(=O)c1ccsc1Sc1cccc(Cl)c1 [Example 235]
25 | 16 µM | – | O=C(O)C(O)=CC(=O)c1sccc1Cl [Example 194]
26 | 5.6 µM | – | O=C(O)C(O)=CC(=O)c1cccc(OCc2ccccn2)c1 [Example 73]
27 | 6.2 µM | – | N#Cc1cccc(COc2cccc(C(=O)C=C(O)C(=O)O)c2)c1 [Example 28]
28 | 3.2 µM | – | O=C(O)C(O)=CC(=O)c1cccc(OCc2ccc(Cl)c(Cl)c2)c1 [Example 133]
29 | 6.8 µM | – | Cc1cc(COc2cccc(C(=O)C=C(O)C(=O)O)c2)no1 [Example 106]
30 | 0.4 µM | – | O=C(O)C(O)=CC(=O)c1cccc(NS(=O)(=O)c2cccc([N+](=O)[O-])c2)c1 [Example 142]
31 | 1.5 µM | – | O=C(O)C(O)=CC(=O)c1cccc(NS(=O)(=O)c2ccc(Cl)s2)c1 [Example 102]
32 | 11 µM | – | O=C(O)C(O)=CC(=O)c1cc2c(s1)-c1ccccc1CC2 [Example 204]
33 | 17 µM | – | C=CCOc1cccc(C(=O)C=C(O)C(=O)O)c1 [Example 5]
34 | 2.1 µM | – | N#CCCCOc1ccc(/C=C/c2ccccc2)cc1C(=O)C=C(O)C(=O)O [Example 57]
35 | 1 µM | – | O=C(O)C(O)=CC(=O)c1cccc(NS(=O)(=O)c2c(Cl)cc(C(F)(F)F)cc2Cl)c1 [Example 140]
36 | 15 µM | – | O=C(O)C(O)=CC(=O)c1ccsc1Cc1cccs1 [Example 227]
37 | 13.6 µM | – | N#CCCCOc1ccc(-c2ccccc2)cc1C(=O)C=C(O)C(=O)O [Example 58]
38 | 12 µM | – | N#CCCCOc1cccc(OCCCC#N)c1C(=O)C=C(O)C(=O)O [Example 171]
39 | 1.8 µM | 5.74 | O=C(O)C(O)=CC(=O)c1cccc(OCc2ccccc2C(=O)O)c1 [Example 90]
40 | 10 µM | – | CCCCOc1ccccc1C(=O)C=C(O)C(=O)O [Example 52]

From patent US7022736B2, “Enzyme inhibitors” (Istituto Di Ricerche Di Biologia Molecolare P Angeletti SpA, priority 1998, dated 2006)
